Laboratory results published in patent US20250297116A1, “PRECURSOR COMPOUNDS FOR MOLECULAR COATINGS” (Apeel Technology, Inc., priority 2015, published 2025).

Experiments:
[1] = test system: edible substrates (blueberries, bananas, strawberries, lemons, avocados, and limes); test: Coating studies on edible substrates: mass loss over time and visible residues; conditions: coated edible substrates
Protocol: For these studies, mixtures (which were typically solid but in some cases were oils) comprising compounds of Formula I and/or compounds of Formula II and/or other additives (e.g., 1-monoacylglycerides, fatty acids, esters, amides, amines, thiols, carboxylic acids, ethers, aliphatic waxes, alcohols, salts (inorganic and organic), or combinations thereof) were first formed. The mixtures were then dissolved in a solvent (e.g., either ethanol or a water and ethanol mixture, for instance in a 1:2 water:ethanol ratio or lower) to form a solution, from which coatings were formed over a variety of edible substrates (blueberries, bananas, strawberries, lemons, avocados, and limes). Details about the specific formulations used and procedures for the forming of the coatings are described below for illustrative purposes with reference to FIGS. 2-18. The substrates were then examined for the presence of visible residues on the surface and tested for percent mass loss over time, and were compared to control samples without the coatings. A variety of different compositions of mixtures (e.g., solid mixtures) were used to form coatings on a variety of edible substrates, where the specific compositions and coating procedures are described below with reference to FIGS. 2-18. Some of the compositions were substantially pure (e.g., at least 90% or at least 95% pure) 2-monoacylglyceride compounds (e.g., compounds of Formula I). For example, coatings were formed from compositions that were substantially pure PA-2G, as well as from compositions that were substantially pure SA-2G. Some of the compositions were substantially pure (e.g., at least 90% or at least 95% pure) 1-monoacylglyceride compounds (e.g., compounds of Formula II). For example, coatings were formed from compositions that were substantially pure PA-1G, compositions that were substantially pure OA-1G, and compositions that were substantially pure SA-1G. Some of the compositions included a compound of Formula I and an additive, where for each of these compositions various ratios of the compound of Formula I to the additive were tested. For example, coatings were formed from compositions which included the combinations of a compound of Formula I and an additive as listed in Table 1 below. Additives included, for example, a saturated or unsaturated compound of Formula II, a saturated or unsaturated fatty acid, an ethyl ester, and/or a second compound of Formula I which is different from the (first) compound of Formula I (e.g., has a different length carbon chain).

finger limes = test: Average daily mass loss rate and residues of coated finger limes; conditions: bag coated, 10 mg/mL in ethanol, over several days, 24 finger limes per group, 23-27°C, 40-55% humidity
Protocol: FIGS. 2-18 illustrate the effects of coating a variety of edible substrates with the compositions described herein. To form the coatings, solid mixtures of the compositions were first fully dissolved in ethanol at a concentration of 10 mg/mL (except where a different concentration is specified) to form a solution. The solution was then applied to the substrate either by spraying or dip coating, as detailed for each of the substrates below. The substrates were then dried on drying racks under ambient conditions (temperature in the range of 23° C.-27° C., humidity in the range of 40%-55%) until all of the solvent had evaporated, allowing the coatings to form over the substrates. […] For all mixtures described, PA was purchased from Sigma Aldrich, PA-1G was purchased from Tokyo Chemical Industry Co, PA-2G was prepared following the method of Example 1 above, SA was purchased from Sigma Aldrich, SA-1G was purchased from Alfa Aesar, SA-2G was prepared following the method of Example 3 above, MA was purchased from Sigma Aldrich, MA-1G was purchased from Tokyo Chemical Industry Co, OA was purchased from Sigma Aldrich, and EtPA was purchased from Sigma Aldrich.
FIG. 11 is a graph showing average daily mass loss rates for finger limes coated with various mixtures of PA-2G (compound of Formula I) and PA-1G (additive) measured over the course of several days. […]

SMILES	reduction in mass loss versus uncoated control samples [1]	average daily mass loss rate (finger limes)
CCCCCCCCCCCCCC(=O)OCC(O)CO (centres unmarked) [MA-1G, 2,3-dihydroxypropan-1-yl tetradecanoate]	at most a nominal reduction in mass loss	–
CCCCCCCC/C=C\CCCCCCCC(=O)OCC(O)CO (centres unmarked) [OA-1G, 2,3-dihydroxypropan-1-yl (9Z)-Octadecenoate]	at most a nominal reduction in mass loss	–
CCCCCCCCCCCCCCCC(=O)OCC(O)CO (centres unmarked) [PA-1G, 2,3-dihydroxypropan-1-yl palmitate]	at most a nominal reduction in mass loss	over 4 % per day
CCCCCCCCCCCCCCCC(=O)OC(CO)CO [PA-2G, 1,3-dihydroxypropan-2-yl palmitate]	at most a nominal reduction in mass loss	under 4 % per day
CCCCCCCCCCCCCCCCCC(=O)OCC(O)CO (centres unmarked) [SA-1G, 2,3-dihydroxypropan-1-yl octadecanoate]	at most a nominal reduction in mass loss	–
CCCCCCCCCCCCCCCCCC(=O)OC(CO)CO [SA-2G, 1,3-dihydroxypropan-2-yl octadecanoate]	at most a nominal reduction in mass loss	–
